Tests used:
[1] = system: dystrophic flies (w; +/+; Dys^det1/Dys^det1); assay: Myofibril analysis of muscle wasting in dystrophic flies fed S1P promoting agents; assay type: in vivo, Drosophila; details: 217 μM in feed, three feeding cycles, 10-day old flies, three days after last feeding
Experimental: The effect of THI, a derivative of THI ((E)-1-(4-((1R,2S,3R)-1,2,3,4-tetrahydroxybutyl)-1H-imidazol-2-yl)-ethanone oxime) (“THI-oxime”), and a sphingosine analog (FTY720) on muscle wasting in dystrophic Drosopila flies was observed. Before feeding, 4 day old dystrophic flies (genotype: w; +/+; Dys^det1/Dys^det1) were placed in empty vials and starved for 6 hours. The flies were then provided access to one of a solution of 0.05 mg/mL (217 μM) 2-Acetyl-4(5)-tetrahydroxybutyl Imidazole (THI), or 217 μM FTY720, or 217 μM THI-oxime, in 5% light corn syrup in water for 16-18 hrs. After feeding, the flies were placed in new yeasted vials for 6-7 hrs. Flies were then transferred to empty vials with access to a 217 μM solution of THI, FTY720 or THI-oxime in a 5% light corn syrup in water for 16-18 hrs. This feeding cycle was repeated for a third time. After feeding for three cycles, the flies were placed in new yeasted vials. The 7-day old flies that had been administered the THI-oxime were analyzed immediately after the last feeding. The flies that has been administered THI and FTY720 were analyzed as 10-day old flies, three days after the last feeding with THI and FTY720.
Myofibril immunochemistry analysis was performed as disclosed herein. For each treatment group, 5 flies were analyzed, and 3 muscles per fly and 2 myofibrils per muscle were analyzed. Two tailed Student's t test was used to evaluate significance.
Flies were dipped in 95% EtOH and then dissected in 1×PBS (pH 7.4). Heads and abdomens were removed, and the thoraxes opened. Samples were stained using a modified ovary staining protocol 3. Samples were then fixed in 5% paraformaldehyde (Electron Microscopy Sciences) for 1 hour, rinsed in PBT (PBS/0.2% Triton X-100 v/v) 4 times, and then blocked for 1 hour in PBTB (PBT, 0.4% BSA w/v, 5% Normal Goat Serum v/v) at room temperature. […] For each genotype, 4-5 flies were analyzed, and 6-7 muscles per fly were analyzed.

S1P level = assay: S1P levels in tissues of CTX injured mdx mice after IP THI; assay type: in vivo, mouse; details: 5-month-old mdx males, IP THI 5 times during 3 days, day 4 post CTX, vs vehicle
Experimental: (a) Experimental schematic of THI (0.075 μg/day) and PBS (vehicle) treated mdx mice injected intraperitoneally (IP) twice daily for the first 72 hours following cardiotoxin (CTX) injury. Muscles, spleen or plasma from 5MO (n=6) mdx males were harvested for S1P and creatin kinase (CK) analysis at day 4 post CTX injury. Muscles from aged mdx mice (n=7 THI treated: 3 11MO females, 4 16MO males. n=6 vehicle: 3 11MO females, 3 16MO males) were harvested for histopathology analysis 18 days post CTX injury. […] (d) Quantification of Picrosirius Red staining indicates reduced fibrosis following injury in both Tibialis Anterior (TA) and Quadriceps (Quads) muscles in mice treated with THI. […] Scale bars=50 μm. (f) Oil Red-O staining depicts fat deposits (arrows) over the entire cross-sectional area of THI treated and control injured TAs. […] Error bars represent SEM.
The effects of THI in the dystrophic mdx mouse model were studied. […] THI was administered intraperitoneally (IP) to three groups of mdx mice. Right tibialis anterior (TA) and quadriceps muscles were uninjured, while left counterparts were injured using CTX, a well characterized model of acute injury where initial muscle destruction is followed by a rapid myogenic response. […] The effects of THI administration on the plasma creatine kinase (CK) activity level was also measured.

SPL = biological target: T1, SPL (Mus musculus, UniProt Q8R0X7); details: Schwab et al., Science 2005; cited from earlier work
T1 construct: host or cells: mice (in vivo)
T1 sequence (Q8R0X7 1-568): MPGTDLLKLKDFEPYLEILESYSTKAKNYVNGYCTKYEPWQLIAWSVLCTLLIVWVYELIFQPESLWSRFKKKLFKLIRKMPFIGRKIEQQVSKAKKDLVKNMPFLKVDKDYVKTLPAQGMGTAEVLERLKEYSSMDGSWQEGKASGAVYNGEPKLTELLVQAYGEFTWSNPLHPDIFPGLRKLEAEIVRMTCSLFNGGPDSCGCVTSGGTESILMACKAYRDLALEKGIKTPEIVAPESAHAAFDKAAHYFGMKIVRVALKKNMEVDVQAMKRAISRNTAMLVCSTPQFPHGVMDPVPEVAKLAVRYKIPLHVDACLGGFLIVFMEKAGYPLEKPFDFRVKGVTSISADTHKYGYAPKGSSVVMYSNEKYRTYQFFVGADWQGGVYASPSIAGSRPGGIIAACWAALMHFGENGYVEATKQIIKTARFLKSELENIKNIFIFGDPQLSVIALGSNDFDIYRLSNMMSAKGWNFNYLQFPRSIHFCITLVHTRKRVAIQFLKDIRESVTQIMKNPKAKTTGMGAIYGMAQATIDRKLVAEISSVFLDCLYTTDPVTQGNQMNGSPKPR

Structure (SMILES): CC(=O)c1ncc([C@@H](O)[C@H](O)[C@H](O)CO)[nH]1 [THI, 1-[5-[(1R,2S,3R)-1,2,3,4-tetrahydroxybutyl]-1H-imidazol-2-yl]-ethanone]
- wild-type myofibrils [1]: approximately 67%
- S1P level in CTX injured quadriceps (S1P level): significantly increased
- S1P level in spleen tissue (S1P level): significantly increased
- SPL activity when administered to mice (SPL): inhibits SPL activity

Source: US20140051729A1, “COMPOSITIONS AND METHODS FOR TREATING DEGENERATIVE MUSCLE CONDITIONS” (University of Washington, priority 2011, published 2014)
